Source: patent US11806342B2, “Diiodohydroxyquinoline for the treatment of clostridium difficile infection” (Purdue Research Foundation, priority 2019, dated 2023)
In brackets after ≈: the same amount, converted by molar mass. Read-outs that look alike come from different tables or passages of the source.

Key:
[1] = system: 38 tested C. difficile strains; assay: MIC and MBC over the panel of clinical isolates (MIC50, MIC90, range); assay type: cell-based, Clostridium difficile
Procedure: MIC50 and MIC90 are the minimum concentration of each agent that inhibited growth of 50% and 90% of the tested isolates, respectively. The minimum bactericidal concentration (MBC) of these drugs was tested by plating 5 μL from wells with no growth onto BHIS agar plates. The MBC was categorized as the lowest concentration that reduced bacterial growth by 99.9% MIC50 and MIC90 are the minimum concentration of each agent that inhibited the growth of 50% and 90% of the tested isolates, respectively. The minimum bactericidal concentration (MBC) of these drugs was tested by plating 5 μL from wells with no growth onto BHIS agar plates. The MBC was categorized as the lowest concentration that reduced bacterial growth by 99.9% [29-31].

[2] = system: C. difficile ATCC BAA-1870; assay: Toxin A and B production inhibition, ELISA; assay type: cell-based, Clostridium difficile; settings: 8 hours
Procedure: (§1) To investigate DIHQs toxin production inhibitory activity, toxin A and toxin B levels were measured as described previously. […] An aliquot from each tube was diluted and plated on BHIS agar plates and incubated anaerobically at 37° C. for 24 hours to detect the bacterial count. The total concentration of C. difficile toxin A and B was measured in the supernatant of each tube using enzyme linked immunosorbent assay (ELISA) kit (tgc BIOMICS, Dunwoody, GA) following the manufacturer's instructions. The (OD450-OD620) values, corresponding to the toxin concentration, were measured for DIHQ and control drugs.

C. difficile NR-49277 = assay: Toxin A and B production inhibition, ELISA; assay type: cell-based, Clostridium difficile; settings: 8 hours
Procedure: as §1

C. difficile ATCC 43255 [3] = assay: Toxin A and B production inhibition, ELISA; assay type: cell-based, Clostridium difficile; settings: 8 hours
Procedure: as §1

C. difficile ATCC 43255 [4] = assay: Initial screening of antiparasitic drugs, broth microdilution MIC; assay type: cell-based, Clostridium difficile; settings: Clostridioides difficile, ATCC43255; initial screening, C. difficile ATCC 43255; read-out: MIC
Procedure: C. difficile strains were grown anaerobically on brain heart infusion supplemented (BHIS) agar plates at 37° C. for 48 hours. Afterwards, a bacterial solution equivalent to 0.5 McFarland standard was prepared and diluted in (BHIS) broth to achieve a bacterial concentration of about 5×10^5 CFU/mL. Drugs were added and serially diluted along the plates. Plates were then, incubated anaerobically at 37° C. for 48 hours. MICs reported in Table (1) are the minimum concentrations of the drugs that could completely suppress the visual growth of bacteria.

C. difficile ATCC 9689 = assay: Checkerboard assay, DIHQ with metronidazole or vancomycin; assay type: cell-based, Clostridium difficile
Procedure: (§2) Interactions between diiodohydroxyquinoline and the anticlostridial drugs (metronidazole and vancomycin) against Clostridium difficile clinical isolates. […] The fractional inhibitory concentration index (ΣFIC) was calculated for each interaction. Interactions where the ΣFIC index was ≤0.5 were categorized as synergistic (SYN).

C. difficile P11 = assay: as above; assay type: cell-based, Clostridium difficile
Procedure: as §2

[5] = system: Bifidobacterium adolescentis HM-633; assay: MIC against normal gut microflora, broth microdilution; assay type: cell-based; settings: HM633; Bifidobacterium adolescentis HM-633; read-out: MIC
Procedure: (§3) In vitro antimicrobial evaluation of diiodohydroxyquinoline against normal microflora. The broth microdilution assay was utilized to determine the MICs of DIHQ and control antibiotics against commensal organisms that compose he human gut microflora, as described elsewhere. A bacterial solution equivalent to 0.5 McFarland standard was prepared and diluted in BHIS broth (for Bifidobacterium and Bacteroides) or in MRS broth (for Lactobacillus) to achieve a bacterial concentration of about 5×10^5 CFU/mL. Then, drugs were added and serially diluted along the plates.

[6] = system: Lactobacillus crispatus HM-371; assay: as above; assay type: cell-based; settings: HM371; Lactobacillus crispatus HM-371; read-out: MIC
Procedure: as §3

[7] = system: Bacteroides fragilis HM-714; assay: as above; assay type: cell-based; settings: HM714; Bacteroides fragilis HM-714; read-out: MIC
Procedure: as §3

[8] = system: Bacteroides fragilis HM-710; assay: as above; assay type: cell-based; settings: HM710; Bacteroides fragilis HM-710; read-out: MIC
Procedure: as §3

[9] = system: Bacteroides fragilis HM-709; assay: as above; assay type: cell-based; settings: HM709; Bacteroides fragilis HM-709; read-out: MIC
Procedure: as §3

Bacteroides dorei HM-718 = assay: as above; assay type: cell-based; settings: Phocaeicola dorei, HM718; Bacteroides dorei HM-718; read-out: MIC
Procedure: as §3

Bacteroides dorei HM-29 = assay: as above; assay type: cell-based; settings: Phocaeicola dorei, HM29; Bacteroides dorei HM-29; read-out: MIC
Procedure: as §3

[10] = system: Bifidobacterium longum HM-845; assay: as above; assay type: cell-based; settings: HM845; Bifidobacterium longum HM-845; read-out: MIC
Procedure: as §3

Bacteroides dorei HM-717 = assay: as above; assay type: cell-based; settings: Phocaeicola dorei, HM717; Bacteroides dorei HM-717; read-out: MIC
Procedure: as §3

[11] = system: Lactobacillus reuteri HM-102; assay: as above; assay type: cell-based; settings: Lactobacillus reuteri HM-102
Procedure: as §3

[12] = system: Bifidobacterium longum HM-847; assay: as above; assay type: cell-based; settings: HM847; Bifidobacterium longum HM-847; read-out: MIC
Procedure: as §3

[13] = system: Bifidobacterium breve HM-411; assay: as above; assay type: cell-based; settings: HM411; Bifidobacterium breve HM-411; read-out: MIC
Procedure: as §3

[14] = system: C. difficile ATCC BAA-1870; assay: Checkerboard assay, DIHQ with metronidazole or vancomycin; assay type: cell-based, Clostridium difficile
Procedure: (§4) The fractional inhibitory concentration index (ΣFIC) was calculated for each interaction. Interactions where the ΣFIC index was ≤0.5 were categorized as synergistic (SYN).

C. difficile ATCC 43255 [15] = assay: as above; assay type: cell-based, Clostridium difficile
Procedure: as §4

C. difficile I9 = assay: as above; assay type: cell-based, Clostridium difficile
Procedure: as §4

[16] = DIHQ with metronidazole, C. difficile ATCC 9689
[17] = DIHQ with vancomycin, C. difficile ATCC 9689
[18] = DIHQ with metronidazole, C. difficile P11
[19] = DIHQ with vancomycin, C. difficile P11
[20] = DIHQ with metronidazole, C. difficile ATCC BAA-1870
[21] = DIHQ with vancomycin, C. difficile ATCC BAA-1870
[22] = DIHQ with metronidazole, C. difficile ATCC 43255
[23] = DIHQ with vancomycin, C. difficile ATCC 43255
[24] = DIHQ with metronidazole, C. difficile I9
[25] = DIHQ with vancomycin, C. difficile I9

Oc1c(I)cc(I)c2cccnc12 [DIHQ, 5,7-diiodoquinolin-8-ol]
MIC50 ([1]; Clostridioides difficile, concentration inhibiting growth of 50% of the tested isolates, read-out: MIC50): 0.5 µg/mL (≈ 1.26 µM) | MIC90 ([1]; Clostridioides difficile, concentration inhibiting growth of 90% of the tested isolates, read-out: MIC90): 2 µg/mL (≈ 5.04 µM) | MBC values relative to the corresponding MIC values ([1]; all isolates): equal to or two-fold higher | MIC range ([1]; over the 38 tested C. difficile strains): 0.06 to 2 µg/mL | inhibition of total toxin production ([2]; C. difficile ATCC BAA-1870, ¼×MIC): 17.8% | inhibition of total toxin production ([2]; C. difficile ATCC BAA-1870, ½×MIC): 27% | inhibition of total toxin production (C. difficile NR-49277; C. difficile NR-49277, ¼×MIC): ~31.8% | inhibition of total toxin production (C. difficile NR-49277; C. difficile NR-49277, ½×MIC): ~38.9% | inhibition of total toxin production (C. difficile ATCC 43255 [3]; C. difficile ATCC 43255, ¼×MIC): ~8% | inhibition of total toxin production (C. difficile ATCC 43255 [3]; C. difficile ATCC 43255, ½×MIC): ~28.5% | MIC (C. difficile ATCC 43255 [4]): 0.5 µg/mL (≈ 1.26 µM) | MIC of DIHQ combined with metronidazole (C. difficile ATCC 9689; C. difficile ATCC 9689): 0.06 µg/mL | MIC of DIHQ combined with vancomycin (C. difficile ATCC 9689; C. difficile ATCC 9689): 0.06 µg/mL | MIC alone (C. difficile ATCC 9689; C. difficile ATCC 9689, Table 4): 0.125 µg/mL | MIC (C. difficile ATCC 9689; Clostridioides difficile, ATCC9689, C. difficile ATCC 9689, Table 3, read-out: MIC alone): 0.125 µg/mL | Interpretation (C. difficile ATCC 9689; [16]): ADD (ΣFIC index >0.5 − 1.25 is considered additive (ADD)) | ΣFIC Index (C. difficile ATCC 9689; [16]): 0.62 | Interpretation (C. difficile ATCC 9689; [17]): ADD (ΣFIC index >0.5 − 1.25 is considered additive (ADD)) | ΣFIC Index (C. difficile ATCC 9689; [17]): 0.625 | MIC of DIHQ combined with metronidazole (C. difficile P11; C. difficile P11): 0.125 µg/mL | MIC of DIHQ combined with vancomycin (C. difficile P11; C. difficile P11): 0.5 µg/mL | MIC alone (C. difficile P11; C. difficile P11, Table 4): 0.5 µg/mL | MIC (C. difficile P11; Clostridioides difficile, C. difficile P11, Table 3, read-out: MIC alone): 0.5 µg/mL | Interpretation (C. difficile P11; [18]): SYN (ΣFIC index ≤0.5 is considered synergistic (SYN)) | ΣFIC Index (C. difficile P11; [18]): 0.37 | Interpretation (C. difficile P11; [19]): ADD (ΣFIC index >0.5 − 1.25 is considered additive (ADD)) | ΣFIC Index (C. difficile P11; [19]): 1.125 | MIC [5]: 128 µg/mL (≈ 322 µM) | MIC [6]: 64 µg/mL (≈ 161 µM) | MIC [7]: > 128 µg/mL | MIC [8]: > 128 µg/mL | MIC [9]: > 128 µg/mL | MIC (Bacteroides dorei HM-718): > 128 µg/mL | MIC (Bacteroides dorei HM-29): > 128 µg/mL | MIC [10]: 64 µg/mL (≈ 161 µM) | MIC (Bacteroides dorei HM-717): > 128 µg/mL | MIC [11]: >128 µg/mL | MIC ([11]; Limosilactobacillus reuteri, HM102, read-out: MIC): > 128 µg/mL | MIC [12]: 128 µg/mL (≈ 322 µM) | MIC [13]: > 128 µg/mL | MIC of DIHQ combined with metronidazole ([14]; C. difficile ATCC BAA-1870): 0.125 µg/mL | MIC of DIHQ combined with vancomycin ([14]; C. difficile ATCC BAA-1870): 0.06 µg/mL | MIC alone ([14]; C. difficile ATCC BAA-1870, Table 4): 1 µg/mL | MIC ([14]; Clostridioides difficile, ATCCBAA1870, C. difficile ATCC BAA-1870, Table 3, read-out: MIC alone): 1 µg/mL | Interpretation [14, 20]: SYN (ΣFIC index ≤0.5 is considered synergistic (SYN)) | ΣFIC Index [14, 20]: 0.25 | Interpretation [14, 21]: SYN (ΣFIC index ≤0.5 is considered synergistic (SYN)) | ΣFIC Index [14, 21]: 0.185 | MIC of DIHQ combined with metronidazole (C. difficile ATCC 43255 [15]; C. difficile ATCC 43255): 0.25 µg/mL | MIC of DIHQ combined with vancomycin (C. difficile ATCC 43255 [15]; C. difficile ATCC 43255): 0.125 µg/mL | MIC alone (C. difficile ATCC 43255 [15]; C. difficile ATCC 43255, Table 4): 1 µg/mL | MIC (C. difficile ATCC 43255 [15]; Clostridioides difficile, ATCC43255, C. difficile ATCC 43255, Table 3, read-out: MIC alone): 1 µg/mL | Interpretation (C. difficile ATCC 43255 [15]; [22]): SYN (ΣFIC index ≤0.5 is considered synergistic (SYN)) | ΣFIC Index (C. difficile ATCC 43255 [15]; [22]): 0.375 | Interpretation (C. difficile ATCC 43255 [15]; [23]): SYN (ΣFIC index ≤0.5 is considered synergistic (SYN)) | ΣFIC Index (C. difficile ATCC 43255 [15]; [23]): 0.25 | MIC of DIHQ combined with metronidazole (C. difficile I9; C. difficile I9): 0.06 µg/mL | MIC of DIHQ combined with vancomycin (C. difficile I9; C. difficile I9): 0.06 µg/mL | MIC alone (C. difficile I9; C. difficile I9, Table 4): 0.06 µg/mL | MIC (C. difficile I9; Clostridioides difficile, C. difficile I9, Table 3, read-out: MIC alone): 0.06 µg/mL | Interpretation (C. difficile I9; [24]): ADD (ΣFIC index >0.5 − 1.25 is considered additive (ADD)) | ΣFIC Index (C. difficile I9; [24]): 1.125 | Interpretation (C. difficile I9; [25]): ADD (ΣFIC index >0.5 − 1.25 is considered additive (ADD)) | ΣFIC Index (C. difficile I9; [25]): 1.125
